Assay results from ChEMBL document CHEMBL1122891, “Substituted 5H-dibenz[b,g]-1,4-oxazocines and related amino acids with antiinflammatory activity” (1985).

Tests used:
Type in all cases: functional
[1] = test system: Rattus norvegicus; test: Minimum ulcerogenic dose was evaluated 24 hours after peroral administration; value may range from 100-200
[2] = test system: Rattus norvegicus; test: Percent reduction in swelling of the left hind paw in rat determined in adjuvant arthritis test, 25 mg/kg dose was perorally; conditions: route oral
[3] = test system: Rattus norvegicus; test: Percent reduction in swelling of the left hind paw in rat when 10 mg/kg of dose was injected perorally which was determined in adjuvant arthritis test; conditions: route oral
[4] = species on record: Rattus norvegicus; test: Activity relative to fenclofenac determined in adjuvant arthritis test
[5] = test system: Rattus norvegicus; test: Percent reduction in swelling of the left hind paw in rat determined in adjuvant arthritis test, 50 mg/kg dose perorally; conditions: route oral
[6] = test system: Rattus norvegicus; test: Minimum ulcerogenic dose was evaluated 24 hours after peroral administration
[7] = test system: Rattus norvegicus; test: Percent reduction in swelling of the left hind paw in rat when 100 mg/kg of dose was injected perorally which was determined in adjuvant arthritis test; conditions: route oral
[8] = test system: Rattus norvegicus; test: Minimum ulcerogenic dose was evaluated 24 hours after peroral administration; value may range from 25-50

Row | SMILES | Reduction [2] [%] | Relative potency [4] | Reduction [5] [%] | also measured
1 | CCc1cc(N)c(Oc2ccc(C)cc2CC(=O)O)c(F)c1 | 1 | – | – | MUD [1]: 100 mg/kg
2 | Nc1cc(Cl)c(Cl)c(Cl)c1Oc1ccccc1CC(=O)O | – | 8.2 | – | Reduction [3]: 33%
3 | O=C(O)Cc1ccccc1Oc1c([N+](=O)[O-])cc(Cl)c(Cl)c1Cl | – | 0.6 | – | Reduction [3]: 17%
4 | O=C(O)Cc1cccc(Cl)c1Oc1c(Cl)cccc1[N+](=O)[O-] | 1 | – | – | –
5 | Clc1ccc(CN2CCc3ccccc3Oc3c(Cl)cc(Cl)cc32)cc1 | – | – | 10 | –
6 | O=C(Cc1ccccc1Oc1c(Cl)cccc1[N+](=O)[O-])OC1OC(=O)c2ccccc21 (stereo not drawn) | – | 0.7 | 30 | MUD [6]: >800 mg/kg
7 | CC(=O)NNC(=O)N1CCc2ccccc2Oc2c(Cl)cc(Cl)cc21 | – | – | – | Reduction [7]: 18%
8 | O=C(O)Cc1ccccc1Oc1c(Cl)cc(Cl)cc1[N+](=O)[O-] | 36 | – | – | –
9 | O=C(O)Cc1ccccc1Oc1ccccc1[N+](=O)[O-] | – | – | 1 | –
10 | O=CN1CCc2ccccc2Oc2c(Cl)cccc21 | – | – | – | Reduction [7]: 33%
11 | Nc1ccc(Cl)cc1Oc1ccccc1CC(=O)O | 12 | – | – | –
12 | Cc1ccc2c(c1)CCNc1cc(Cl)cc(Cl)c1O2 | – | – | 17 | –
13 | Nc1cccc(Cl)c1Oc1ccccc1CC(=O)OC1OC(=O)c2ccccc21 (stereo not drawn) | – | – | – | Reduction [7]: 36%
14 | CNc1cc(Cl)cc(C)c1Oc1ccccc1CC(=O)O | – | 2.8 | – | Reduction [3]: 28%
15 | COC(=O)Cc1ccccc1Oc1c(Cl)cccc1[N+](=O)[O-] | 31 | – | – | –
16 | COc1cc(N)c(Oc2ccccc2CC(=O)O)c(Cl)c1 | 24 | – | – | –
17 | Clc1cccc2c1Oc1ccccc1CCN2 | – | 0.2 | – | Reduction [7]: 33%
18 | CCc1cc(Cl)cc(N)c1Oc1ccccc1CC(=O)O | – | 2.8 | – | Reduction [3]: 25%
19 | CN1CCc2ccccc2Oc2c(Cl)cc(Cl)cc21 | – | 2.4 | 35 | –
20 | Cc1ccc2c(c1)CCN(C)c1cccc(Cl)c1O2 | – | – | 15 | –
21 | Clc1ccc2c(c1)CCNc1cc(Cl)cc(Cl)c1O2 | – | 0.8 | 25 | –
22 | NNC(=O)N1CCc2ccccc2Oc2c(Cl)cc(Cl)cc21 | 32 | 0.6 | – | –

Row | SMILES | Reduction [2] [%] | Relative potency [4] | Reduction [5] [%] | also measured
23 | CN1CCc2cc(Cl)ccc2Oc2c(Cl)cccc21 | – | – | 13 | –
24 | C=CCN1CCc2ccccc2Oc2c(Cl)cc(Cl)cc21 | – | – | 18 | –
25 | Cc1cc(Cl)c2c(c1)NCCc1cc(Cl)ccc1O2 | – | 0.5 | – | Reduction [7]: 21%
26 | CCCN1CCc2ccccc2Oc2c(Cl)cc(Cl)cc21 | – | 0.6 | 39 | –
27 | CCC(C)c1cc(N)c(Oc2ccc(C)cc2CC(=O)O)c(Cl)c1 (stereo not drawn) | – | – | – | Reduction [3]: 10%
28 | Cc1cccc(CC(=O)O)c1Oc1c(Cl)cccc1[N+](=O)[O-] | 0 | – | – | –
29 | Cc1cc(N)c(Oc2ccc(C)cc2CC(=O)O)c(Cl)c1 | 3 | – | – | –
30 | Nc1cccc(N)c1Oc1ccccc1CC(=O)O | 5 | – | – | –
31 | CCc1cc(N)c(Oc2ccc(C)cc2CC(=O)O)c(Cl)c1 | 34 | 1 | – | –
32 | Cc1cc(N)c(Oc2ccccc2CC(=O)O)c(Cl)c1 | 20 | – | – | –
33 | Cc1c(Cl)c(C)c2c(c1Cl)Oc1ccccc1CCN2 | – | – | 6 | –
34 | CCc1cc(Cl)c2c(c1)NCCc1cc(C)ccc1O2 | – | – | – | Reduction [7]: 13%
35 | Cc1cccc([N+](=O)[O-])c1Oc1ccccc1CC(=O)O | – | – | – | Reduction [3]: 26%
36 | Oc1ccc2c(c1)CCNc1cc(Cl)cc(Cl)c1O2 | – | – | – | Reduction [3]: 2%
37 | C/C=C/CN1CCc2ccccc2Oc2c(Cl)cc(Cl)cc21 | – | – | 21 | –
38 | Cc1ccc(Oc2cc(Cl)c(Cl)cc2N)c(CC(=O)O)c1 | 10 | – | – | –
39 | Nc1c(Cl)cc(Cl)cc1Oc1ccccc1CC(=O)O | – | 6.6 | – | Reduction [3]: 37%
40 | CN1CCc2ccccc2Oc2c(Cl)cccc21 | – | 1.4 | 31 | –
41 | Clc1ccc2c(c1)NCCc1ccccc1O2 | – | – | 0 | –
42 | CCN(CC)C(=O)Cc1ccccc1Oc1c(N)cccc1Cl | – | – | 6 | –
43 | Cc1ccc2c(c1)CCNc1cccc(Cl)c1O2 | – | – | 22 | –
44 | CCOC(=O)N1CCc2ccccc2Oc2c(Cl)cc(Cl)cc21 | – | 0.5 | – | Reduction [3]: 21%

Row | SMILES | Reduction [2] [%] | Relative potency [4] | Reduction [5] [%] | also measured
45 | O=C(O)Cc1ccccc1Oc1cc(Cl)cc(Cl)c1[N+](=O)[O-] | – | 2.9 | – | Reduction [3]: 34%
46 | CC(C)(C)OC(=O)Cc1ccccc1Oc1c(Cl)cccc1[N+](=O)[O-] | – | – | 21 | –
47 | Clc1ccc2c(c1)CCNc1c(Cl)ccc(Cl)c1O2 | – | – | 14 | –
48 | COC(=O)Cc1ccccc1Oc1c(Cl)cc(Cl)cc1NC(C)=O | 18 | – | – | –
49 | O=C(O)Cc1ccccc1Oc1c([N+](=O)[O-])ccc(Cl)c1Cl | 25 | – | – | –
50 | O=C(Cl)N1CCc2ccccc2Oc2c(Cl)cc(Cl)cc21 | – | – | 7 | –
51 | Cc1c(Cl)ccc(N)c1Oc1ccccc1CC(=O)O | 34 | 4.1 | – | MUD [1]: 100 mg/kg
52 | CNc1cccc(Cl)c1Oc1ccccc1CC(=O)O | – | 15 | – | MUD [6]: <12.5 mg/kg
53 | Cc1ccc2c(c1)NCCc1ccccc1O2 | – | – | 0 | –
54 | O=C(O)Cc1ccccc1Oc1ccc(C(F)(F)F)cc1[N+](=O)[O-] | – | – | – | Reduction [7]: 29%
55 | CCC(C)c1cc(Cl)c2c(c1)NCCc1cc(C)ccc1O2 (stereo not drawn) | – | – | 14 | –
56 | C[N+]1([O-])CCc2ccccc2Oc2c(Cl)cccc21 (stereo not drawn) | 23 | 0.7 | – | –
57 | C[N+]1([O-])CCc2ccccc2Oc2c(Cl)cc(Cl)cc21 (stereo not drawn) | – | 2.2 | 42 | –
58 | Clc1ccc2c(c1)Oc1ccccc1CCN2 | – | – | 0 | –
59 | CNC(=O)N1CCc2ccccc2Oc2c(Cl)cc(Cl)cc21 | – | – | – | Reduction [3]: 4%
60 | CCC[N+]1([O-])CCc2ccccc2Oc2c(Cl)cc(Cl)cc21 (stereo not drawn) | – | – | 36 | –
61 | Nc1cc(Br)cc(Br)c1Oc1ccccc1CC(=O)O | 50 | 8.6 | – | MUD [8]: 25 mg/kg
62 | COC(=O)Cc1ccccc1Oc1c(N)cccc1Cl | 35 | – | – | –
63 | Nc1cccc(Cl)c1Oc1cc(Cl)ccc1CC(=O)O | 1 | – | – | –
64 | c1ccc2c(c1)CCNc1ccccc1O2 | – | – | 6 | –
65 | COc1cc(Cl)c2c(c1)NCCc1ccccc1O2 | – | – | 18 | –
66 | NC(=O)Cc1ccccc1Oc1c(N)cccc1Cl | – | – | 14 | –

Row | SMILES | Reduction [2] [%] | Relative potency [4] | Reduction [5] [%] | also measured
67 | O=C(c1ccc(Cl)cc1)N1CCc2ccccc2Oc2c(Cl)cc(Cl)cc21 | – | – | 0 | –
68 | Nc1cccc(Cl)c1Oc1ccccc1CC(=O)O | 36 | 3.5 | – | MUD [8]: 25 mg/kg
69 | CNc1cccc(C)c1Oc1ccccc1CC(=O)O | 46 | 6.5 | – | MUD [8]: 25 mg/kg
70 | Nc1ccc(Cl)c(Cl)c1Oc1ccccc1CC(=O)O | 33 | – | – | –
71 | Nc1cccc(F)c1Oc1ccccc1CC(=O)O | 27 | – | – | –
72 | Cc1cc(Cl)cc(N)c1Oc1ccccc1CC(=O)O | – | 5.6 | – | Reduction [3]: 34%; MUD [8]: 25 mg/kg
73 | Cc1cc(Cl)cc([N+](=O)[O-])c1Oc1ccccc1CC(=O)O | 34 | 3.3 | – | –
74 | Nc1cc(Cl)ccc1Oc1ccccc1CC(=O)O | – | – | – | Reduction [7]: 4%
75 | Fc1cccc2c1Oc1ccccc1CCN2 | – | – | 0 | –
76 | Clc1cc(Cl)c2c(c1)N(Cc1ccccc1)CCc1ccccc1O2 | – | – | – | Reduction [3]: 2%
77 | O=C(Cc1ccccc1Oc1c(Cl)cccc1[N+](=O)[O-])NO | – | – | 36 | –
78 | Clc1ccc2c(c1)CCNc1cccc(Cl)c1O2 | – | – | 16 | –
79 | Clc1ccc2c(c1)Oc1c(Cl)cccc1NCC2 | – | – | 10 | –
80 | Cc1ccc2c(c1)CCNc1cc(Cl)c(Cl)cc1O2 | – | – | 8 | –
81 | COC(=O)Cc1ccccc1Oc1c(Cl)cc(Cl)cc1N(C)C | – | 2.7 | – | Reduction [3]: 33%
82 | Cc1cc(N)c(Oc2ccc(Cl)cc2CC(=O)O)c(Cl)c1 | 32 | 1.4 | – | –
83 | CCCC(=O)N1CCc2ccccc2Oc2c(Cl)cc(Cl)cc21 | – | – | – | Reduction [7]: 8%
84 | O=C(O)Cc1ccccc1Oc1c(Cl)cc(Cl)c(Cl)c1[N+](=O)[O-] | – | – | – | Reduction [3]: 30%
85 | CNc1cccc(Cl)c1Oc1ccccc1CCO | – | 5 | – | Reduction [3]: 36%; MUD [1]: 100 mg/kg
86 | Cc1cc(Cl)cc2c1Oc1ccccc1CCN2 | – | 0.9 | 32 | –
